The values below come from patent publication US20240247015A1, “PHOSPHORUS DERIVATIVES AS NOVEL SOS1 INHIBITORS” (BAYER AKTIENGESELLSCHAFT, priority 2021, published 2024).

Sequence of interaction of human SOS1 (SOS1) with human K-RasG12C (Q07889 564-1049 limits assumed): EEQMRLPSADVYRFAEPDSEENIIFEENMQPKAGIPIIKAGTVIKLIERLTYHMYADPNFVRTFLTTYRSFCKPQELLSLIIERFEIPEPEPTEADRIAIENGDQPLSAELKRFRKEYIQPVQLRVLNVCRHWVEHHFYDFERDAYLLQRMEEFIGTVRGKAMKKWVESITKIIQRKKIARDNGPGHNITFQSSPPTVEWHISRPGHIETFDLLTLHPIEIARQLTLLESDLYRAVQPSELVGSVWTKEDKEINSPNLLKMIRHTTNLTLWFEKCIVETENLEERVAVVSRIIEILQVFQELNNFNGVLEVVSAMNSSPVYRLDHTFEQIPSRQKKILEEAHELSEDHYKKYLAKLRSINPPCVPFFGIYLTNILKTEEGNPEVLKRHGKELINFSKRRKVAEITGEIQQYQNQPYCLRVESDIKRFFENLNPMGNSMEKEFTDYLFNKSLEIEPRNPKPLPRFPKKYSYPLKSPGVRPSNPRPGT

This assay has as its target interaction of human SOS1 (SOS1) with human K-RasG12C (Homo sapiens (Human), UniProt Q07889). Put plainly: Biochemical assay: hK-RasG12C interaction assay with hSOS1 (HTRF). Format: binding. The settings on record: GST-hK-RasG12C with His-hSOS1, 60 min incubation at 20° C., mean, read-out: K-RasG12C - SOS interaction assay IC50 (mean). The method in brief: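 Compounds, duplicates at 11 concentrations from 0.073 nM to 20 µM, were preincubated 2 min with 10 nM GST-hK-RasG12C, then 20 nM His-hSOS1 was added, all at 20 °C. After 60 min, 665/620 nm HTRF ratio normalized to DMSO and SOS1-free controls; IC50 by 4-parameter fit.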
A general note: In TR-FRET formats the signal depends on donor and acceptor labels being close together.
What is called IC50 is the concentration that gives 50% inhibition. For `Cc1nc(N[C@H](C)c2cccc(C(F)F)c2F)c2cc(P3(=O)CCN(C(=O)[C@@H](C)O)CC3)ncc2n1` [Example 150, 4-[4-{{(1R)-1-[3-(difluoromethyl)-2-fluorophenyl]ethyl}amino)-2-methylpyrido[3,4-d]pyrimidin-6-yl]-1-[(2R)-2-hydroxypropanoyl]-1,4lambda^5-azaphosphinan-4-one], the concentration for half-maximal inhibition (IC50) came out at 4.76 nM.
The figure for `CCP(C)(=O)c1cc2c(N[C@H](C)c3cccc(C(F)(F)C(C)(C)O)c3F)nc(C)nc2cn1` (stereo partly drawn) [Example 67, 1-{3-[(1R)-1-{{6-[ethyl(methyl)phosphoryl]-2-methylpyrido[3,4-d]pyrimidin-4-yl}amino)ethyl]-2-fluorophenyl}-1,1-difluoro-2-methylpropan-2-ol] is 66.9 nM; for `Cc1nc(N[C@H](C)c2cccc(C(F)F)c2F)c2cc(P3(=O)CCN(C(=O)C4CC(F)(F)C4)CC3)ncc2n1` [Example 160, 1-(3,3-difluorocyclobutane-1-carbonyl)-4-[4-({(1R)-1-[3-(difluoromethyl)-2-fluorophenyl]ethyl}amino)-2-methylpyrido[3,4-d]pyrimidin-6-yl]-1,4lambda^5-azaphosphinan-4-one] it is 7.87 nM.
In the case of `Cc1nc(N[C@H](C)c2cccc(C(F)(F)C(C)(C)O)c2F)c2cc(P3(=O)CCCC3)ncc2n1` [Example 4, 1-[4-({(1R)-1-[3-(1,1-difluoro-2-hydroxy-2-methylpropyl)-2-fluorophenyl]ethyl}amino)-2-methylpyrido[3,4-d]pyrimidin-6-yl]-1lambda^5-phospholan-1-one], the concentration for half-maximal inhibition (IC50) came out at 12.8 nM.
The figure for `CCP(C)(=O)c1cc2c(N[C@H](C)c3cccc(C(F)(F)CO)c3F)nc(C)nc2cn1` (stereo partly drawn) [Example 130, 2-{3-[(1R)-1-{{6-[ethyl(methyl)phosphoryl]-2-methylpyrido[3,4-d]pyrimidin-4-yl}amino)ethyl]-2-fluorophenyl}-2,2-difluoroethan-1-ol] is 16.1 nM.
For `CC(=O)N1CCP(=O)(c2cc3c(N[C@H](C)c4cccc(C(F)(F)F)c4C)nc(C)nc3c(CO)n2)CC1` [Example 34, 1-acetyl-4-[8-(hydroxymethyl)-2-methyl-4-({(1R)-1-[2-methyl-3-(trifluoromethyl)phenyl]ethyl}amino)pyrido[3,4-d]pyrimidin-6-yl]-1,4lambda^5-azaphosphinan-4-one], the 50% inhibitory concentration (IC50) worked out at 72.8 nM.
The same measure for `CCOC(=O)N1CCP(=O)(c2cc3c(N[C@H](C)c4cccc(C(F)F)c4F)nc(C)nc3cn2)CC1` [Example 187]: 12 nM.
As for `Cc1nc(N[C@H](C)c2cccc(C(F)F)c2F)c2cc(P(=O)(C(C)C)C(C)C)ncc2n1` [Example 108, N-{(1R)-1-[3-(difluoromethyl)-2-fluorophenyl]ethyl}-6-[di(propan-2-yl)phosphoryl]-2-methylpyrido[3,4-d]pyrimidin-4-amine], the half-inhibitory concentration (IC50) came to 153 nM.
The figure for `COc1nc2nc(C)nc(N[C@H](C)c3cccc(C(F)(F)F)c3C)c2cc1P(C)(C)=O` [Example 101, 6-(dimethylphosphoryl)-7-methoxy-2-methyl-N-{(1R)-1-[2-methyl-3-(trifluoromethyl)phenyl]ethyl}pyrido[2,3-d]pyrimidin-4-amine] is 17.5 nM; for `Cc1nc(N[C@H](C)c2cccc(C(F)F)c2F)c2cc(P3(=O)CCN(C(=O)C4(F)CC4)CC3)ncc2n1` [Example 151, 4-[4-{{(1R)-1-[3-(difluoromethyl)-2-fluorophenyl]ethyl}amino)-2-methylpyrido[3,4-d]pyrimidin-6-yl]-1-(1-fluorocyclopropane-1-carbonyl)-1,4lambda^5-azaphosphinan-4-one] it is 12.2 nM; for `Cc1nc(N[C@H](C)c2cccc(C(F)(F)F)c2C)c2cc(P(C)(C)=O)ccc2n1` [Example 106, 6-(dimethylphosphoryl)-2-methyl-N-{(1R)-1-[2-methyl-3-(trifluoromethyl)phenyl]ethyl}quinazolin-4-amine] it is 16.1 nM.
For the compound `CC(=O)N1CCP(=O)(c2cc3c(N[C@H](C)c4cccc(C(F)(F)C(=O)O)c4F)nc(C)nc3cn2)CC1` [Example 43, {3-[(1R)-1-{[6-(1-acetyl-4-oxo-1,4lambda^5-azaphosphinan-4-yl)-2-methylpyrido[3,4-d]pyrimidin-4-yl]amino}ethyl]-2-fluorophenyl}(difluoro)acetic acid], the concentration for half-maximal inhibition (IC50) came to 375 nM.
`COCC(F)(F)c1cccc([C@@H](C)Nc2nc(C)nc3cnc(P4(=O)CCN(C(C)=O)CC4)cc23)c1` [Example 143, 1-acetyl-4-[4-({(1R)-1-[3-(1,1-difluoro-2-methoxyethyl)phenyl]ethyl}amino)-2-methylpyrido[3,4-d]pyrimidin-6-yl]-1,4lambda^5-azaphosphinan-4-one]: the IC50 was 12.6 nM.
On to `CC(=O)N1CCP(=O)(c2cc3c(N[C@H](C)c4cccc(C(F)(F)F)c4C)nc(C)nc3c(O)n2)CC1` [Example 30, 1-acetyl-4-[8-hydroxy-2-methyl-4-({(1R)-1-[2-methyl-3-(trifluoromethyl)phenyl]ethyl}amino)pyrido[3,4-d]pyrimidin-6-yl]-1,4lambda^5-azaphosphinan-4-one], for which the half-inhibitory concentration (IC50) came to 1360 nM.
As to `Cc1nc(N[C@H](C)c2cccc(C(F)(F)F)c2C)c2cc(P3(=O)CCN(C(=O)C4(C(F)F)CC4)CC3)ncc2n1` [Example 169, 1-[1-(difluoromethyl)cyclopropane-1-carbonyl]-4-[2-methyl-4-({(1R)-1-[2-methyl-3-(trifluoromethyl)phenyl]ethyl}amino)pyrido[3,4-d]pyrimidin-6-yl]-1,4lambda^5-azaphosphinan-4-one], the concentration for half-maximal inhibition (IC50) stood at 9.55 nM.
The figure for `Cc1nc(N[C@H](C)c2cccc(C(F)(F)C(C)(C)O)c2F)c2cc(P(=O)(C(C)C)C(C)C)ncc2n1` [Example 12, 1-{3-[(1R)-1-({6-[di(propan-2-yl)phosphoryl]-2-methylpyrido[3,4-d]pyrimidin-4-yl}amino)ethyl]-2-fluorophenyl}-1,1-difluoro-2-methylpropan-2-ol] is 59.4 nM; for `Cc1nc(N[C@H](C)c2cccc(C(F)(F)F)c2C)c2cc(P3(=O)CCN(C(=O)NC4CC4)CC3)ncc2n1` [Example 184] it is 5.62 nM; for `Cc1nc(N[C@H](C)c2cccc(Br)c2F)c2cc(P(C)(C)=O)ncc2n1` [Example 56, N-[(1R)-1-(3-bromo-2-fluorophenyl)ethyl]-6-(dimethylphosphoryl)-2-methylpyrido[3,4-d]pyrimidin-4-amine] it is 74.1 nM.
On to `Cc1nc(N[C@H](C)c2cccc(C(F)(F)C(C)O)c2F)c2cc(P(C)(C)=O)ncc2n1` (stereo in doubt) [Example 86, (2R*)-1-{3-[(1R)-1-{[6-(dimethylphosphoryl)-2-methylpyrido[3,4-d]pyrimidin-4-yl]amino}ethyl]-2-fluorophenyl}-1,1-difluoropropan-2-ol], for which the half-maximal inhibitory concentration (IC50) worked out at 36.6 nM.
The same measure for `Cc1nc(NC(C)c2ccnc(C(F)(F)F)c2)c2cc(P(C)(C)=O)ncc2n1` (single isomer, unassigned) [Example 25, 6-(dimethylphosphoryl)-2-methyl-N-{1-[2-(trifluoromethyl)pyridin-4-yl]ethyl}pyrido[3,4-d]pyrimidin-4-amine]: 4850 nM; for `Cc1nc(N[C@H](C)c2cccc(C(F)(F)F)c2C)c2cc(P3(=O)CCN(S(C)(=O)=O)CC3)ncc2n1` [Example 41, 1-(methanesulfonyl)-4-[2-methyl-4-({(1R)-1-[2-methyl-3-(trifluoromethyl)phenyl]ethyl}amino)pyrido[3,4-d]pyrimidin-6-yl]-1,4lambda^5-azaphosphinan-4-one]: 174 nM.
As for `Cc1nc(N[C@H](C)c2cccc(C(F)F)c2F)c2cc(P3(=O)CCN(C(=O)C4(C(F)F)CC4)CC3)ncc2n1` [Example 159, 1-[1-(difluoromethyl)cyclopropane-1-carbonyl]-4-[4-{{(1R)-1-[3-(difluoromethyl)-2-fluorophenyl]ethyl}amino)-2-methylpyrido[3,4-d]pyrimidin-6-yl]-1,4lambda^5-azaphosphinan-4-one], the half-maximal inhibitory concentration (IC50) stood at 12.7 nM.
Take `Cc1nc(N[C@H](C)c2cc(N)cc(C(F)(F)F)c2)c2cc(P(C)(C)=O)ncc2n1` [Example 97, N-{(1R)-1-[3-amino-5-(trifluoromethyl)phenyl]ethyl}-6-(dimethylphosphoryl)-2-methylpyrido[3,4-d]pyrimidin-4-amine]: the concentration for half-maximal inhibition (IC50) came to 13.6 nM.
The figure for `Cc1nc(N[C@H](C)c2cccc(C(F)(F)C(O)C(C)(C)C)c2F)c2cc(P(C)(C)=O)ncc2n1` (stereo in doubt) [Example 136, (2R*)-1-{3-[(1R)-1-{[6-(dimethylphosphoryl)-2-methylpyrido[3,4-d]pyrimidin-4-yl]amino}ethyl]-2-fluorophenyl}-1,1-difluoro-3,3-dimethylbutan-2-ol] is 38.9 nM; for `COC(C)(C)C(F)(F)c1cccc([C@@H](C)Nc2nc(C)nc3cnc(P4(=O)CCCC4)cc23)c1F` [Example 122, 1-[4-({(1R)-1-[3-(1,1-difluoro-2-methoxy-2-methylpropyl)-2-fluorophenyl]ethyl}amino)-2-methylpyrido[3,4-d]pyrimidin-6-yl]-1lambda^5-phospholan-1-one] it is 62.6 nM.
Turning to `Cc1nc(N[C@H](C)c2cccc(C(F)F)c2F)c2cc(P3(=O)CCN(C(=O)C4COC4)CC3)ncc2n1` [Example 158, 4-[4-{{(1R)-1-[3-(difluoromethyl)-2-fluorophenyl]ethyl}amino)-2-methylpyrido[3,4-d]pyrimidin-6-yl]-1-(oxetane-3-carbonyl)-1,4lambda^5-azaphosphinan-4-one], the IC50 was found to be 7.89 nM.
The same measure for `Cc1nc(N[C@H](C)c2cccc(C(F)(F)F)c2C)c2cc(P(C)(C)=O)c(C)nc2n1` [Example 17, 6-(dimethylphosphoryl)-2,7-dimethyl-N-{(1R)-1-[2-methyl-3-(trifluoromethyl)phenyl]ethyl}pyrido[2,3-d]pyrimidin-4-amine]: 10.6 nM.
